Test results reported in ChEMBL document CHEMBL1128209, “Cyclooxygenase-2 inhibitors. Synthesis and pharmacological activities of 5-methanesulfonamido-1-indanone derivatives” (J Med Chem, 1995).

Experiments:
[1] = target: T1, Prostaglandin G/H synthase 2 (Homo sapiens, UniProt P35354); test: In vitro inhibition of prostaglandin G/H synthase 2 expressed in human osteosarcoma 143 cells; assay type: cell-based
T1 sequence (P35354 whole entry): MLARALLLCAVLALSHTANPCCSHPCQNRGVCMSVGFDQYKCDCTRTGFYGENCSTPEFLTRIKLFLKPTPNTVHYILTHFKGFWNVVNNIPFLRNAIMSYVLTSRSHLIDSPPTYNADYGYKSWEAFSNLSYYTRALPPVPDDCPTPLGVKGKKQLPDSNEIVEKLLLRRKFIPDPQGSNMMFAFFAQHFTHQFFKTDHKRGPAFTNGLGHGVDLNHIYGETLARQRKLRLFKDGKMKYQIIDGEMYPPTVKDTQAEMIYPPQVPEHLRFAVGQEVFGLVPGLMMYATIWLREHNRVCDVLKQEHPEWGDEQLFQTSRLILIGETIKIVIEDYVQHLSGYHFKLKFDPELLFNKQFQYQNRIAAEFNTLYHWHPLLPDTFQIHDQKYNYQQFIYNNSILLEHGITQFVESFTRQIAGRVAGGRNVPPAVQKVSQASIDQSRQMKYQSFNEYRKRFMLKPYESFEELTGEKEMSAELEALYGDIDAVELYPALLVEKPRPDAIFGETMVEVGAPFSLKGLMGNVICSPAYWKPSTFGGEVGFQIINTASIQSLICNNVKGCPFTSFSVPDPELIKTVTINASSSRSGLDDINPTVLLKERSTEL

[2] = target: Prostaglandin G/H synthase 1 (Homo sapiens, UniProt P23219); test: Inhibition of Prostaglandin G/H synthase 1 in human U937 cells; assay type: cell-based, U-937
Chain of Prostaglandin G/H synthase 1 (P23219 whole entry): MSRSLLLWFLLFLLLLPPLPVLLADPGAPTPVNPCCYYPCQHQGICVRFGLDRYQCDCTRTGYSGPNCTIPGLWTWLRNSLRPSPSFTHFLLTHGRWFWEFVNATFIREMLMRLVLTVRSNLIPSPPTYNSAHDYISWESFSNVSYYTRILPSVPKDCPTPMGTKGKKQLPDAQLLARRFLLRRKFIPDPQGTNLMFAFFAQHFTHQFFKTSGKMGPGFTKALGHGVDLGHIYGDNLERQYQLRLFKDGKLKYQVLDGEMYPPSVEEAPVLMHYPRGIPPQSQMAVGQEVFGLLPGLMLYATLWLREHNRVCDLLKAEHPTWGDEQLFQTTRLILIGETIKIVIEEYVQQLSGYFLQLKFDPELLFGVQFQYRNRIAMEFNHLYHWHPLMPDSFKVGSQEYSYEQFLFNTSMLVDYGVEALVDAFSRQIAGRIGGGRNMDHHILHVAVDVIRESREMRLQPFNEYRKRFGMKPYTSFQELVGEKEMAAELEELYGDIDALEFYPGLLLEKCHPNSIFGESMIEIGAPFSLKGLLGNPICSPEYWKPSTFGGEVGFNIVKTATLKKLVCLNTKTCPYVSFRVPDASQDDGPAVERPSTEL

Rattus norvegicus [3] = test: In vivo antiinflammatory activity by the Carrageenan-induced rat paw edema assay.; assay type: functional
[4] = Bioavailability in rat; assay type: ADME, organism-based; settings: in vivo
[5] = Plasma Clearance rate was determined for the compound in rats; assay type: ADME, organism-based; settings: rat
[6] = Plasma Clearance rate was determined for the compound in squirrel monkeys; assay type: ADME, organism-based; settings: saimiri
[7] = Plasma terminal half life in squirrel monkeys at a dose of 1 mg/kg administered intravenously; assay type: ADME, organism-based; set-up: dose 1 mg/kg, route intravenous; settings: saimiri, iv
[8] = Bioavailability in squirrel monkey; assay type: ADME, organism-based, Saimiri sciureus; settings: in vivo
[9] = target: T2, Prostaglandin G/H synthase 2 (Homo sapiens) (UniProt P35354); test: Ability to inhibit the Prostaglandin G/H synthase 2 expressed in human osteosarcoma 143 cells, in vitro; assay type: cell-based; settings: concentration not given here
T2 sequence (whole entry): T1 sequence (P35354 whole entry)

Rattus norvegicus [10] = test: In vivo antiinflammatory activity by the Carrageenan-induced rat paw edema assay; assay type: functional
[11] = Plasma clearance rate was determined for the compound in rats; assay type: ADME, organism-based; settings: rat
[12] = Plasma clearance rate was determined for the compound in squirrel monkeys; assay type: ADME, organism-based; settings: saimiri
Rattus norvegicus [13] = test: In vivo antipyretic activity by endotoxin-induced rat pyresis assay.; assay type: functional
Rattus norvegicus [14] = test: In vivo antiinflammatory activity by the Carrageenan-induced rat paw hyperalgesia assay.; assay type: functional

Structure (SMILES)	IC50 [1]	IC50 [2]	other results
CC(C)(C)c1ccc(Sc2cc3c(cc2NS(C)(=O)=O)CCC3=O)cc1	> 10000 nM	–	–
CC(=O)Nc1cc2c(cc1Sc1ccc(F)cc1F)C(=O)CC2	> 10000 nM	–	–
CS(=O)(=O)Nc1cc2c(cc1SC1CCCCC1)C(=O)CC2	50 nM	> 50000 nM	ED30 (Rattus norvegicus [3]): >3 MPK
CC(C)c1ccc(Sc2cc3c(cc2NS(C)(=O)=O)CCC3=O)cc1	> 10000 nM	–	–
CS(=O)(=O)Nc1cc2c(cc1Sc1cccc(F)c1)C(=O)CC2	> 10000 nM	–	–
CS(=O)(=O)Nc1cc2c(cc1Sc1cscn1)C(=O)CC2	> 10000 nM	–	–
CS(=O)(=O)Nc1cc2c(cc1Oc1ccc(F)cc1F)C(=O)CC2 [FLOSULIDE]	–	> 50000 nM	bioavailability [4]: 92%; clearance [5]: 1.2 mL/min; clearance [6]: 1.2 mL/min; half-life [7]: 4.9 h; ED30 (Rattus norvegicus [3]): 0.6 MPK; bioavailability [8]: 63%
Cc1ccc(Sc2cc3c(cc2NS(C)(=O)=O)CCC3=O)cc1	–	> 1000 nM	ED30 (Rattus norvegicus [3]): 10 MPK
Cc1cccc(Sc2cc3c(cc2NS(C)(=O)=O)CCC3=O)c1	> 10000 nM	–	–
CS(=O)(=O)Nc1cc2c(cc1OC1CCCC1)C(=O)CC2	> 1000 nM	> 10000 nM	–
CS(=O)(=O)Nc1cc2c(cc1[S+]([O-])c1ccc(F)cc1F)C(=O)CC2 (stereo unspecified)	–	–	inhibition [9]: 27%
CS(=O)(=O)Nc1cc2c(cc1Sc1cncs1)C(=O)CC2	> 10000 nM	–	–
Cc1ccccc1Sc1cc2c(cc1NS(C)(=O)=O)CCC2=O	–	> 50000 nM	–
CS(=O)(=O)Nc1cc2c(cc1Sc1cccnc1)C(=O)CC2	–	–	inhibition [9]: 30%
COc1ccccc1Sc1cc2c(cc1NS(C)(=O)=O)CCC2=O	> 10000 nM	–	–
CS(=O)(=O)Nc1cc2c(cc1S(=O)(=O)c1ccc(F)cc1F)C(=O)CC2	> 10000 nM	–	–
CS(=O)(=O)Nc1cc2c(cc1Sc1ccc(F)cc1F)C(=O)CC2	–	> 50000 nM	bioavailability [4]: 90%; ED30 (Rattus norvegicus [10]): 0.21 MPK; clearance [11]: 0.5 mL/min; half-life [7]: 6.9 h; bioavailability [8]: 145%; clearance [12]: 0.5 mL/min
CS(=O)(=O)Nc1cc2c(cc1Sc1ccc(C(=O)O)cc1)C(=O)CC2	> 10000 nM	–	–
O=C1CCc2cc(NC(=O)C(F)(F)F)c(Sc3ccc(F)cc3F)cc21	> 10000 nM	–	–
CCS(=O)(=O)Nc1cc2c(cc1Sc1ccc(F)cc1F)C(=O)CC2	> 10000 nM	> 10000 nM	–
CS(=O)(=O)Nc1cc2c(cc1OC1CCOCC1)C(=O)CC2	> 10000 nM	–	–
CS(=O)(=O)Nc1cc2c(cc1Sc1ccsc1)C(=O)CC2	–	–	inhibition [9]: 46%
CS(=O)(=O)Nc1cc2c(cc1Oc1ccc(S(C)(=O)=O)cc1)C(=O)CC2	> 10000 nM	–	–
CS(=O)(=O)Nc1cc2c(cc1OC1CCCCC1)C(=O)CC2	50 nM	> 1000 nM	ED30 (Rattus norvegicus [3]): 10 MPK
COc1ccc2c(c1)c(CC(=O)O)c(C)n2C(=O)c1ccc(Cl)cc1 [INDOMETHACIN]	–	–	ED50 (Rattus norvegicus [13]): 7 mg/kg; ED50 (Rattus norvegicus [3]): 2 mg/kg; ED50 (Rattus norvegicus [14]): 1.47 mg/kg
CS(=O)(=O)Nc1cc2c(cc1Sc1ccc(Br)cc1)C(=O)CC2	10 nM	> 10000 nM	ED30 (Rattus norvegicus [3]): 3 MPK

The next lines start with results.

IC50 [1]	IC50 [2]	Structure (SMILES)	other results
1000 nM	–	CS(=O)(=O)Nc1cc2c(cc1Sc1cccs1)C(=O)CC2	–
100 nM	> 50000 nM	CS(=O)(=O)Nc1cc2c(cc1Sc1ccccc1F)C(=O)CC2	–
1000 nM	–	CS(=O)(=O)Nc1cc2c(cc1Sc1ccncc1)C(=O)CC2	–
40 nM	–	O=C1CCc2cc(NS(=O)(=O)C(F)(F)F)c(Sc3ccc(F)cc3F)cc21	–
100 nM	> 50000 nM	CS(=O)(=O)Nc1cc2c(cc1Sc1c(F)cccc1F)C(=O)CC2	–
1000 nM	–	CS(=O)(=O)Nc1cc2c(cc1Nc1ccc(F)cc1F)C(=O)CC2	–
100 nM	–	CS(=O)(=O)Nc1cc2c(cc1Sc1ccccn1)C(=O)CC2	–
100 nM	> 10000 nM	CS(=O)(=O)Nc1cc2c(cc1Sc1nccs1)C(=O)CC2	ED30 (Rattus norvegicus [3]): 0.85 MPK
10 nM	40000 nM	CS(=O)(=O)Nc1cc2c(cc1Sc1ccc(Cl)cc1Cl)C(=O)CC2	ED30 (Rattus norvegicus [3]): 0.1 MPK
> 200 nM	< 1000 nM	CS(=O)(=O)Nc1cc2c(cc1Cc1ccc(F)cc1F)C(=O)CC2	–
100 nM	–	COc1ccc(Sc2cc3c(cc2NS(C)(=O)=O)CCC3=O)cc1	–
100 nM	–	CCc1ccc(Sc2cc3c(cc2NS(C)(=O)=O)CCC3=O)cc1	–
1000 nM	> 50000 nM	CS(=O)(=O)Nc1cc2c(cc1Sc1ccc(F)cc1)C(=O)CC2	–
100 nM	–	CSc1ccc(Oc2cc3c(cc2NS(C)(=O)=O)CCC3=O)cc1	–
